Reference: US20180049444A1, “XENORHABDUS SZENTIRMAII METABOLITES, TRANS-CINNAMIC ACID, AND ANALOGS THEREOF AS ENHANCERS OF FUNGICIDAL ACTIVITY” (priority 2016, published 2018)

Key:
[1] = test system: Monilinia fructicola (brown rot); assay: Synergy assessment of TCA and trans-Cinnamaldehyde with commercial fungicides, growth area on PDA after 4 days; type: cell-based; details: FIG. 11
Source text: Following the procedures above and those in Hazir et al (2017b, J. Invertebrate Path. 145: 1-8), synergy assessments were implemented to compare trans-Cinnamic acid to an exemplary analog, trans-Cinnamaldehyde. The target phytopathogen was Monilinia fructicola (brown rot). Treatment effects were compared by measuring vegetative growth of the phytopathogens in vitro when they were exposed to the fungicidal agents applied alone or in combination. Solutions of the fungicidal treatments were incorporated into potato dextrose agar (PDA) to achieve the desired concentrations, and autoclaved. Prior to autoclaving the PDA, the prescribed volume of distilled water was reduced to allow addition of the fungicide solutions. Controls consisted of PDA without any amendment or PDA with acetone only (the solvent used for TCA). Trans-Cinnamic acid and trans-Cinnamaldehyde were applied alone or with commercial fungicides […]® (extract of Reynoutria sachalinensis) or Serenade® (Bacillus subtilis). After 4 days the area of M. fructicola growth was determined. […] [table]

Glomerella cingulata = assay: Suppression of in vitro vegetative growth (colony area) on agar amended with 10% supernatant or TCA; type: cell-based; details: G. cingulata; FIG. 2; 7 days
Venturia effusa = assay: as above; type: cell-based; details: V. effusa; FIG. 4; 7 days
Source text: (§1) Treatment effects were compared by measuring in vitro vegetative growth of the phytopathogens V. carpophila and V. effusa when exposed to the same bacterial exudates evaluated above in the germination study. Solutions of the fungicidal treatments were incorporated into PDA and autoclaved. Prior to autoclaving the PDA, the prescribed volume of distilled water was reduced to allow addition of treatment suspensions. Controls consisted of PDA without any amendment or PDA with acetone only (the solvent for TCA). The media were vortexed when cooled to 40-42° C. and poured to Petri dishes.
(§2) A 5 mm diameter mycelia plug from a fungal culture plate was transferred onto the center surface of each agar dish (Fang et al. 2011; Hazir et al. 2017a) and incubated at 25° C. Vegetative growth of the fungus was measured after 7 days. Growth was measured in two perpendicular directions to obtain the approximate area of the fungal mat.

Venturia carpophila [2] = assay: as above; type: cell-based; details: V. carpophila; FIG. 5; 7 days
Source text: as §1, §2

V. effusa = assay: Suppression of spore germination in potato dextrose broth with 10% bacterial supernatant or TCA; type: cell-based, Venturia effusa
Method: The spores of V. carpophila and V. effusa were used to determine the inhibitory effect of the bacterial supernatants on germination. Supernatants tested were from X. nematophila, X. cabanillasii, X. bovienii, X. szentirmaii, strain 17C+E, P. temperate, P. luminescens (VS) and P. luminescens (K-22). The conidia suspension (0.1 ml) of V. effusa or V. carpophila was added to 0.8 ml potato dextrose broth (PDB) in 2 ml eppendorf tubes containing 0.1 ml (10% v/v) bacterial supernatant. Controls were PDB alone and conidial suspension without supernatant. Because TCA derived from Photorhabdus spp. was identified as an active compound with significant antifungal activity (Bock et al. 2014), TCA was added (1.27 mg/ml) in all experiments for comparison as well. The stock solution of TCA (99% purity, Sigma, St. Louis, Mo.) was prepared with 12.7 g dissolved in 100 ml ethanol (96%). […] The tubes were incubated at 25° C. for 48 hours and the first 100 conidia were counted under the microscope (400×) to determine percentage spore germination (which was used to determine treatment effects). […] An inhibition rate was determined according to the formula: 100×[(the average percentage of spores germinated in the control−the average percentage of spores germinated in the treatment)/the average percentage of spores germinated in the control] […]

Monilinia fructicola = assay: Suppression of in vitro vegetative growth (colony area) on agar amended with 10% supernatant or TCA; type: cell-based; details: M. fructicola; FIG. 3; 7 days
Venturia carpophila [3] = assay: Suppression of spore germination in potato dextrose broth with 10% bacterial supernatant or TCA; type: cell-based; details: V. carpophila
Method: The spores of V. carpophila and V. effusa were used to determine the inhibitory effect of the bacterial supernatants on germination. Supernatants tested were from X. nematophila, X. cabanillasii, X. bovienii, X. szentirmaii, strain 17C+E, P. temperate, P. luminescens (VS) and P. luminescens (K-22). The conidia suspension (0.1 ml) of V. effusa or V. carpophila was added to 0.8 ml potato dextrose broth (PDB) in 2 ml eppendorf tubes containing 0.1 ml (10% v/v) bacterial supernatant. Controls were PDB alone and conidial suspension without supernatant. Because TCA derived from Photorhabdus spp. was identified as an active compound with significant antifungal activity (Bock et al. 2014), TCA was added (1.27 mg/ml) in all experiments for comparison as well. The stock solution of TCA (99% purity, Sigma, St. Louis, Mo.) was prepared with 12.7 g dissolved in 100 ml ethanol (96%). Each treatment was replicated three times, and the experiment was repeated once on a different date. The tubes were incubated at 25° C. for 48 hours and the first 100 conidia were counted under the microscope (400×) to determine percentage spore germination (which was used to determine treatment effects). […] An inhibition rate was determined according to the formula: 100×[(the average percentage of spores germinated in the control−the average percentage of spores germinated in the treatment)/the average percentage of spores germinated in the control] (Fang et al. 2011). Analysis of Variance (ANOVA) (SAS V9.3, SAS Institute Inc., Cary, N.C.) was also applied to the data for V. carpophila.

Row | SMILES | Interaction (level of M. fructicola suppression) when combined with commercial fungicides such as Regalia and Serenade [1] | suppression of vegetative growth compared among treatments (Glomerella cingulata) | suppression of vegetative growth compared among treatments (Venturia effusa) | suppression of vegetative growth compared among treatments (Venturia carpophila [2]) | percentage spore germination compared among treatments (V. effusa) | inhibition at 1270 µg/mL (V. effusa; Venturia effusa, 10% v/v supernatant or TCA 1.27 mg/ml, 48 hours at 25° C., read-out: Inhibition rate of spore germination (%)) [%] | suppression of vegetative growth compared among treatments (Monilinia fructicola) | percentage spore germination (Venturia carpophila [3]; 10% supernatant or TCA 1.27 mg/ml, 48 hours) [%] | level of suppression of spore germination compared among treatments (Venturia carpophila [3]; FIG. 1) | inhibition at 1270 µg/mL (Venturia carpophila [3]; Venturia carpophila, 10% v/v supernatant or TCA 1.27 mg/ml, 48 hours at 25° C., read-out: Inhibition rate of spore germination (%)) [%]
1 | O=C/C=C/c1ccccc1 [CA, trans-Cinnamaldehyde] | synergistic |  |  |  |  |  |  |  |  | 
2 | O=C(O)/C=C/c1ccccc1 [TCA, trans-Cinnamic acid] | synergistic | most suppression | highest suppression | most suppression | the least | 76.7 | greatest suppression | 8.66 | highest level of suppression | 87.7
